pEC50: −log10 of the molar value. Square brackets hold non-standard residues; d marks the D form. Peptide text beside a SMILES is read from it. * marks the point of attachment. ξ: configuration not given here. Ile(3ξ) = CCC(C)[C@H](N)C(=O)O; ξE = NC(CCC(=O)O)C(=O)O; Cbz = O=C(OCc1ccccc1)*; CH2F = FC*
Assays:
SARS-CoV [1] = experiment: Inhibitory activity against SARS coronavirus 6109 replication in vero (CCL81) cells; type: functional, organism-based; conditions: Severe acute respiratory syndrome-related coronavirus
SARS-CoV [2] = experiment: Inhibitory activity against SARS coronavirus FFMI replication in Caco-2 cells; type: functional, organism-based; conditions: Severe acute respiratory syndrome-related coronavirus
Vero [3] = experiment: Cytotoxicity against Vero (CCL81) cells; type: functional; conditions: Chlorocebus sabaeus
SARS-CoV [4] = experiment: Inhibitory activity against SARS coronavirus FFMI replication in vero (CCL81) cells; type: functional, organism-based; conditions: Severe acute respiratory syndrome-related coronavirus
Vero [5] = experiment: Selectivity index (CC50/EC50) in SARS coronavirus 6109 infected Vero cells; type: functional, Chlorocebus sabaeus
rhinovirus A2 = experiment: Antiviral activity against Human rhinovirus 2 in a cell based assay; type: functional, organism-based

Row | Compound | pEC50 (SARS-CoV [1]) | pEC50 (SARS-CoV [2]) | CC50 (Vero [3]) [µM] | pEC50 (SARS-CoV [4]) | Selectivity index (Vero [5]) | EC50 (rhinovirus A2) [µg/mL]
1 | CN(C)C(=O)CCC(NC(=O)CNC(=O)OCc1ccccc1)C(=O)CF (stereo not drawn) (Cbz-Gly-[ξE](NMe2)-CH2F) | < 4.00 | < 4.00 | > 100 | < 4.00 |  | 
2 | C[C@H](NC(=O)OCc1ccccc1)C(=O)NC(CCC(=O)N(C)C)C(=O)CF (stereo partly drawn) (Cbz-Ala-[ξE](NMe2)-CH2F) | < 4.00 | < 4.00 | > 100 | < 4.00 |  | 
3 | CC(C)C[C@H](NC(=O)OCc1ccccc1)C(=O)NC(CCC(=O)N(C)C)C(=O)CF (stereo partly drawn) (Cbz-Leu-[ξE](NMe2)-CH2F) | 5.60 | 5.62 | > 100 | 5.44 | >40 | > 100
4 | CC(C)[C@H](NC(=O)OCc1ccccc1)C(=O)NC(CC(=O)O)C(=O)CF (stereo not given in full) | < 4.00 | < 4.00 | > 100 | < 4.00 |  | 
5 | CCC(C)[C@H](NC(=O)OCc1ccccc1)C(=O)NC(CCC(=O)N(C)C)C(=O)CF (stereo not given in full) (Cbz-[Ile(3ξ)]-[ξE](NMe2)-CH2F) | 5.28 | 5.06 | > 100 | 5.05 | >18 | > 100
6 | CC(C)[C@H](NC(=O)OCc1ccccc1)C(=O)NC(CCC(=O)N(C)C)C(=O)CF (stereo partly drawn) (Cbz-Val-[ξE](NMe2)-CH2F) | 5.18 | 4.90 | > 100 | 5.21 | >15 | > 100

From ChEMBL document CHEMBL1149375, “Design and synthesis of dipeptidyl glutaminyl fluoromethyl ketones as potent severe acute respiratory syndrome coronovirus (SARS-CoV) inhibitors” (J Med Chem, 2006)
